This note sets out measurements from patent US20230381142A1, “ANTILEISHMANIAL COMPOUNDS, COMPOSITIONS AND USE THEREOF” (TRUSTEES OF BOSTON UNIVERSITY, priority 2022, published 2023).

One series has as its system HepG2 cells. The series is described as follows: HepG2 cytotoxicity. In kind it is cell-based. Conditions: Homo sapiens; toxicity against HepG2 cells.
The nature of series [1]: Host THP-1 cell cytotoxicity in the CDIPD high content screen. In kind it is cell-based, human. Conditions: human. The method in brief:
(§1)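 THP-1 cells differentiated with 0.1 μM PMA for 48 h, then infected with stationary-phase promastigotes (L. major LV39 or L. donovani 1S/Cl2D) at 1:15 parasite-cell ratio. Compounds applied for 72 h at 37° C. Cells formaldehyde-fixed, DAPI-stained, imaged to count amastigotes and host cells.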

Series [2] has as its system L. donovani intracellular amastigotes in B10R cells. As to the kind of experiment: UCSD L. donovani infection assay (Assay Conditions D). In kind it is cell-based. To be noted: Leishmania donovani. Put shortly: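 Compounds, either single-point at 10 μM or 10-point 2-fold series (3 technical, 2 biological replicates), were incubated 72 h at 37° C. with B10R host cells co-seeded with day-7 stationary L. donovani promastigotes (20:1). DAPI-stained nuclei imaging yielded intracellular parasite EC50 and host-cell CC50.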

The next series deals with host THP-1 macrophages. The series is described as follows: GSK inMac assay, host cell toxicity readout (LD MAC). In kind it is cell-based, human. Put shortly: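 MAC EC50 reflects THP-1 host cell counts, measured within GSK's inMac L. donovani infection assay that also scores intracellular amastigotes and infected-cell percentage.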
Series [3] can be described thus: Property forecast index (PFI = ChromLogD7.4 + aromatic rings). In kind it is physicochemical.
The test system of series [4] is L. donovani intracellular amastigotes infecting THP-1 cells. As to the kind of experiment: High content intracellular amastigote assay in THP-1 cells (Assay Conditions B; CDIPD screen). In kind it is cell-based, Leishmania donovani. Conditions: Leishmania donovani; THP-1 host cells. The method in brief:
as §1

Series [5] in a line: Kinetic aqueous solubility by CLND. To be noted: kinetic from dmso stock, high-throughput CLND. In kind it is physicochemical. On the procedure:
Solubility of compounds using ChemiLuminescent Nitrogen Detection (CLND) was measured as described. Solubility of compounds using Charged Aerosol Detection (CAD) was measured as described. Solubility of solid compounds in Fasted Simulated Intestinal Fluid (FaSSIF) was measured as described.

[6] abbreviates: Homo sapiens, THP-1, cytotoxicity against host THP-1 macrophages.

In brackets after ≈: the same amount, converted by molar mass. Where only a bound is given, the exact number is not on record here.

Broadly, the EC50 is the concentration giving half of the maximal effect. The CC50 is the concentration that lowers cell viability or growth by half. A higher CC50 goes with better tolerance by the cells. In general, IC50 refers to the concentration needed to halve the response being measured. Higher therefore signals lower potency. The solubility is the dissolved amount per volume that the medium holds. Low values mean a poorly soluble substance, high ones a readily soluble substance. As for `COc1ccc(N2C(=O)c3[nH]nc(CC(C)C)c3C2c2ccc(F)cc2)cc1` (racemic) [Compound 1, 4-(4-fluorophenyl)-3-isobutyl-5-(4-methoxyphenyl)-4,5-dihydropyrrolo[3,4-c]pyrazol-6(1H)-one], the EC50 in the series on HepG2 cells was 63.1 µM; in series [2] (average of two biological replicates, read-out: L. donovani EC50 (UCSD assay)) it was 820 nM; with host THP-1 macrophages (setting [6]), 15.8 µM; in the series with host THP-1 macrophages (cytotoxicity against host THP-1 macrophages, listed as rac-1), 15.9 µM; in series [4], 2.5 µM. For the same compound, in series [1], the CC50 at 72 h was > 20 µM. The compound also gave an IC50 in series [2] of 800 nM. Moreover, the PFI in series [3] came out at 8.4. In series [5] (aqueous medium), this compound showed a solubility of 107 µM (≈ 40.6 µg/mL).

Regarding `COc1ccc(N2C(=O)c3[nH]nc(CC(C)C)c3C2c2ccccc2)cc1` (stereo not shown) [Compound 2], the EC50 with HepG2 cells was found to be 79.4 µM; in the series on host THP-1 macrophages (setting [6]) it was 31.6 µM; in series [4], 3.7 µM. Moreover, the CC50 at 72 h in series [1] is > 20 µM. Also, the IC50 in series [2] was 1100 nM. Also, the PFI in series [3] stood at 8.4. Besides, the solubility in series [5] (aqueous medium (not further specified)) was determined as 90 µM (≈ 32.5 µg/mL).
